Test results as given in patent US20240166652A1, “MODULATORS OF THE INTEGRATED STRESS PATHWAY” (Calico Life Sciences LLC, priority 2017, published 2024).
pEC50: −log10 of the molar value.

The molecules below were run on ATF4 luciferase reporter in HEK293T cells (assay: ATF4-Luc assay (ATF4 luciferase reporter, tunicamycin-treated HEK293T cells)). Details: Homo sapiens, HEK-293T; HEK293T cells carrying the ATF4 luciferase reporter, 1 μg/mL tunicamycin, 7 hours.
Type: cell-based, human

Row | Structure (SMILES) | pEC50
1 | COc1cc(OCC(=O)NC23CCC(NC(=O)COc4ccc(Cl)c(F)c4)(CC2)C[C@@H]3O)ccc1Cl [Compound 528, 2-(4-chloro-3-fluorophenoxy)-N-{(3S)-4-[2-(4-chloro-3-methoxyphenoxy)acetamido]-3-hydroxybicyclo[2.2.2]octan-1-yl}acetamide] | > 8.00
2 | CCc1cc(COCC23CC(NC(=O)COc4ccc(Cl)c(F)c4)(C2)C3)on1 [Compound 610, 2-(4-chloro-3-fluorophenoxy)-N-(3-{[(3-ethyl-1,2-oxazol-5-yl)methoxy]methyl}bicyclo[1.1.1]pentan-1-yl)acetamide] | < 5.70
3 | Cc1ccc(OCC(=O)NC23CCC(NC(=O)COc4ccc(F)c(F)c4)(CC2)[C@@H](O)C3)cc1F [Compound 734, 2-(3,4-difluorophenoxy)-N-{(2S)-4-[2-(3-fluoro-4-methylphenoxy)acetamido]-2-hydroxybicyclo[2.2.2]octan-1-yl}acetamide] | > 8.00
4 | O=C(Cc1ccc(Cl)cn1)NC12CCC(NC(=O)COc3ccc(Cl)c(F)c3)(CC1)[C@@H](O)C2 [Compound 606, 2-(4-chloro-3-fluorophenoxy)-N-{(2S)-4-[2-(5-chloropyridin-2-yl)acetamido]-2-hydroxybicyclo[2.2.2]octan-1-yl}acetamide] | 6.60 to 7.30
5 | COc1ncc(OCC(=O)NC23CCC(NC(=O)COc4ccc(C(F)(F)F)c(F)c4)(CC2)[C@@H](O)C3)cn1 [Compound 633, 2-[3-fluoro-4-(trifluoromethyl)phenoxy]-N-[(2S)-2-hydroxy-4-{2-[(2-methoxypyrimidin-5-yl)oxy]acetamido}bicyclo[2.2.2]octan-1-yl]acetamide] | 7.30 to 8.00
6 | O=C(COCCc1cccc(F)c1)NC12CC(NC(=O)COc3ccc(Cl)c(Cl)c3)(C1)C2 [Compound 150, 2-(3,4-dichlorophenoxy)-N-(3-{2-[2-(3-fluorophenyl)ethoxy]acetamido}-bicyclo[1.1.1]pentan-1-yl)acetamide] | 7.30 to 8.00
7 | O=C(COc1ccc(Cl)c(F)c1)N[C@@H]1[C@@H]2CC[C@@](NC(=O)COc3ccc(Cl)c(F)c3)(C2)C[C@@H]1O (racemic) [Compound 638, rac-N,N′-[(1R,3S,4R,5R)-3-hydroxybicyclo[3.2.1]octane-1,4-diyl]bis[2-(4-chloro-3-fluorophenoxy)acetamide]] | > 8.00
8 | O=C(COc1ccc(Cl)c(F)c1)NC12CCC(NC(=O)CNc3ccc(Cl)c(F)c3)(CC1)[C@@H](O)C2 [Compound 748, 2-(4-chloro-3-fluoroanilino)-N-{(2S)-4-[2-(4-chloro-3-fluorophenoxy)acetamido]-2-hydroxybicyclo[2.2.2]octan-1-yl}acetamide] | 7.30 to 8.00
9 | COC(=O)c1cc(OCC(=O)NC23CCC(NC(=O)COc4ccc(Cl)c(C(=O)OC)c4)(CC2)[C@@H](O)C3)ccc1Cl [Compound 594, dimethyl 3,3′-{[(2S)-2-hydroxybicyclo[2.2.2]octane-1,4-diyl]bis[azanediyl(2-oxoethane-2,1-diyl)oxy]}bis(6-chlorobenzoate)] | < 5.70
10 | O=C(COc1ccc(Cl)c(F)c1)NC12CCC(NC(=O)COc3cc(F)c(Cl)cc3Br)(CC1)C(Br)C2=O (stereo not drawn) [Compound 570, 2-(2-bromo-4-chloro-5-fluorophenoxy)-N-{2-bromo-4-[2-(4-chloro-3-fluorophenoxy)acetamido]-3-oxobicyclo[2.2.2]octan-1-yl}acetamide] | 6.60 to 7.30
11 | O=C(COc1ccc(Cl)c(F)c1)NC12CCC(NC(=O)Cc3ccncc3)(CC1)C(O)C2 (stereo not drawn) [Compound 328, 2-(4-chloro-3-fluorophenoxy)-N-{3-hydroxy-4-[2-(pyridin-4-yl)acetamido]bicyclo[2.2.2]octan-1-yl}acetamide] | < 5.70
12 | COC(=O)c1cc(OCC(=O)NC23CCC(NC(=O)COc4ccc(Cl)c(F)c4)(CC2)[C@@H](O)C3)ccc1Cl [Compound 597, methyl 2-chloro-5-[2-({(3S)-4-[2-(4-chloro-3-fluorophenoxy)acetamido]-3-hydroxybicyclo[2.2.2]octan-1-yl}amino)-2-oxoethoxy]benzoate] | 7.30 to 8.00
13 | O=C(COc1ccc(C(F)(F)F)nc1)NC12CCC(NC(=O)COc3ccc(Cl)c(F)c3)(CC1)C(O)C2 (stereo not drawn) [Compound 313, 2-(4-chloro-3-fluorophenoxy)-N-[2-hydroxy-4-(2-{[6-(trifluoromethyl)pyridin-3-yl]oxy}acetamido)bicyclo[2.2.2]octan-1-yl]acetamide] | > 8.00
14 | CS(=O)(=O)c1ccc(OCC(=O)NC23CCC(NC(=O)COc4ccc(Cl)c(F)c4)(CC2)[C@@H](O)C3)cc1F [Compound 769, 2-(4-chloro-3-fluorophenoxy)-N-[(2S)-4-{2-[3-fluoro-4-(methanesulfonyl)phenoxy]acetamido}-2-hydroxybicyclo[2.2.2]octan-1-yl]acetamide] | 7.30 to 8.00
15 | O=C(COc1ccc(C(F)(F)F)c(F)c1)NC12CCC(NC(=O)COc3ccc(Cl)c(F)c3)(CC1)[C@@H](O)C2 [Compound 849, 2-(4-chloro-3-fluorophenoxy)-N-[(2S)-4-{2-[3-fluoro-4-(trifluoromethyl)phenoxy]acetamido}-2-hydroxybicyclo[2.2.2]octan-1-yl]acetamide] | > 8.00
16 | Cc1cc(OCC(=O)NC23CCC(NC(=O)COc4ccc(Cl)cc4)(CC2)[C@@H](O)C3)ccc1F [Compound 816, 2-(4-chlorophenoxy)-N-{(2S)-4-[2-(4-fluoro-3-methylphenoxy)acetamido]-2-hydroxybicyclo[2.2.2]octan-1-yl}acetamide] | > 8.00
17 | CCCS(=O)(=O)c1ccc(OCC(=O)NC23CCC(NC(=O)COc4ccc(Cl)c(F)c4)(CC2)C[C@@H]3O)cc1 [Compound 522, 2-(4-chloro-3-fluorophenoxy)-N-[(3S)-3-hydroxy-4-{2-[4-(propane-1-sulfonyl)phenoxy]acetamido}bicyclo[2.2.2]octan-1-yl]acetamide] | < 5.70
18 | O=C(COc1ccc(Cl)c(F)c1)N[C@@]12CC[C@@](NC(=O)COc3ccc(Cl)c(F)c3)(C[C@@H]1O)[C@@H](O)C2 (racemic) [Compound 552, rac-N,N′-[(1R,2S,4R,5S)-2,5-dihydroxybicyclo[2.2.2]octane-1,4-diyl]bis[2-(4-chloro-3-fluorophenoxy)acetamide]] | > 8.00
19 | O=C(COc1ccc(Cl)c(Cl)c1)NC12CC(NCC(O)c3ccc(Cl)cc3)(C1)C2 (stereo not drawn) [Compound 288, N-(3-{[2-(4-chlorophenyl)-2-hydroxyethyl]amino}bicyclo[1.1.1]pentan-1-yl)-2-(3,4-dichlorophenoxy)acetamide] | 6.60 to 7.30
20 | COc1cccc(OCC(=O)NC23CCC(NC(=O)COc4ccc(Cl)c(F)c4)(CC2)[C@@H](O)C3)n1 [Compound 792, 2-(4-chloro-3-fluorophenoxy)-N-[(2S)-2-hydroxy-4-{2-[(6-methoxypyridin-2-yl)oxy]acetamido}bicyclo[2.2.2]octan-1-yl]acetamide] | > 8.00
21 | O=C(COc1ccc(Cl)c(F)c1)NC12CCC(NCc3nc4cc(F)c(F)cc4[nH]3)(CC1)C[C@@H]2O [Compound 648, 2-(4-chloro-3-fluorophenoxy)-N-[(2S)-4-{[(5,6-difluoro-1H-benzimidazol-2-yl)methyl]amino}-2-hydroxybicyclo[2.2.2]octan-1-yl]acetamide] | 7.30 to 8.00
22 | O=C(COc1ccnc(C(F)(F)F)c1)NC12CC(NC(=O)COc3ccc4c(c3)OC(F)(F)O4)(C1)C2 [Compound 265, 2-[(2,2-difluoro-2H-1,3-benzodioxol-5-yl)oxy]-N-[3-(2-{[2-(trifluoromethyl)pyridin-4-yl]oxy}acetamido)bicyclo[1.1.1]pentan-1-yl]acetamide] | 7.30 to 8.00
23 | O=C(COc1cccc(C(F)(F)F)n1)NC12CCC(NC(=O)COc3ccc(Cl)cc3)(CC1)[C@@H](O)C2 [Compound 825, 2-(4-chlorophenoxy)-N-[(2S)-2-hydroxy-4-(2-{[6-(trifluoromethyl)pyridin-2-yl]oxy}acetamido)bicyclo[2.2.2]octan-1-yl]acetamide] | 6.60 to 7.30
24 | Cc1ccc(OCC(=O)NC23CC(NC(=O)COc4ccc(Cl)c(Cl)c4)(C2)C3)cn1 [Compound 295, 2-(3,4-dichlorophenoxy)-N-(3-{2-[(6-methylpyridin-3-yl)oxy]acetamido}bicyclo[1.1.1]pentan-1-yl)acetamide] | 6.60 to 7.30
25 | Cc1ccc(OCC(=O)NC23CC(NC(=O)COc4ccc(Cl)c(F)c4)(C2)C3)c(Cl)n1 [Compound 237, 2-(4-chloro-3-fluorophenoxy)-N-(3-{2-[(2-chloro-6-methylpyridin-3-yl)oxy]acetamido}bicyclo[1.1.1]pentan-1-yl)acetamide] | 6.60 to 7.30
26 | O=C(COc1ccc(Cl)cc1)NC12CCC(NC(=O)COc3ccc(F)c(F)c3)(CC1)CC2 [Compound 740, 2-(4-chlorophenoxy)-N-{4-[2-(3,4-difluorophenoxy)acetamido]bicyclo[2.2.2]octan-1-yl}acetamide] | 7.30 to 8.00
27 | COc1ncc(OCC(=O)NC23CCC(NC(=O)COc4cnc(OC)nc4)(CC2)[C@@H](O)C3)cn1 [Compound 626, N,N′-[(2S)-2-hydroxybicyclo[2.2.2]octane-1,4-diyl]bis{2-[(2-methoxypyrimidin-5-yl)oxy]acetamide}] | < 5.70
28 | O=C(COc1ccc(Cl)c(F)c1)NC12CCC(NC(=O)COc3cc(F)c4cn[nH]c4c3)(CC1)[C@@H](O)C2 [Compound 738, 2-(4-chloro-3-fluorophenoxy)-N-[(3S)-4-{2-[(4-fluoro-1H-indazol-6-yl)oxy]acetamido}-3-hydroxybicyclo[2.2.2]octan-1-yl]acetamide] | > 8.00
29 | O=C(COc1ccc(OC(F)(F)F)cc1)NC12CCC(NC(=O)COc3ccc4c(c3)OC(F)(F)O4)(CC1)[C@@H](O)C2 [Compound 780, 2-[(2,2-difluoro-2H-1,3-benzodioxol-5-yl)oxy]-N-[(2S)-2-hydroxy-4-{2-[4-(trifluoromethoxy)phenoxy]acetamido}bicyclo[2.2.2]octan-1-yl]acetamide] | > 8.00
30 | O=C(COc1ccc(Cl)c(F)c1)NC12CCC(NC(=O)COc3ccc(Cl)c(Cl)c3)(CC1)C(=O)N2 [Compound 601, 2-(4-chloro-3-fluorophenoxy)-N-{4-[2-(3,4-dichlorophenoxy)acetamido]-3-oxo-2-azabicyclo[2.2.2]octan-1-yl}acetamide] | > 8.00
